Where a SMILES comes first, the peptide text is derived from it.
Legend:
[1] = Horizon-LBA; type: in vitro ADME; conditions: DOPC; for relative permeability compared with CsA (in words): 2 h; for degree of decrease of permeability coefficient relative to 1: 1.5 h
[2] = PAMPA; cited from earlier work
[3] = system: Caco-2; conditions: Caco-2 assay; cited from earlier work

For `CC[C@@H]1NC(=O)[C@H](C)N(C)C(=O)[C@H](C(C)C)N(C)C(=O)[C@H](CC(C)C)N(C)C(=O)[C@H](CC(C)C)N(C)C(=O)[C@@H](C)NC(=O)[C@H](C)NC(=O)[C@H](CC(C)C)N(C)C(=O)[C@H](C(C)C)NC(=O)[C@H](CC(C)C)N(C)C(=O)CN(C)C1=O` [compound 1], the “relative permeability compared with CsA (in words)” value (“relative permeability” for short) [1] was “higher permeability than CsA”.
For `CC[C@@H]1NC(=O)[C@H](CC(C)C)N(C)C(=O)[C@H](C(C)C)N(C)C(=O)[C@H](CC(C)C)N(C)C(=O)[C@H](CC(C)C)N(C)C(=O)[C@@H](C)NC(=O)[C@H](C)NC(=O)[C@H](CC(C)C)N(C)C(=O)[C@H](C(C)C)NC(=O)[C@H](CC(C)C)N(C)C(=O)CN(C)C1=O` [compound 2], the “relative permeability” value [1] was “significant differences in the relative permeability of 2 and 3 from CsA were not observed”.
With `CC[C@@H]1NC(=O)[C@H]([C@@H](C)O)N(C)C(=O)[C@H](C(C)C)N(C)C(=O)[C@H](CC(C)C)N(C)C(=O)[C@H](CC(C)C)N(C)C(=O)[C@@H](C)NC(=O)[C@H](C)NC(=O)[C@H](CC(C)C)N(C)C(=O)[C@H](C(C)C)NC(=O)[C@H](CC(C)C)N(C)C(=O)CN(C)C1=O` [compound 3] the “relative permeability” value [1] was “significant differences in the relative permeability of 2 and 3 from CsA were not observed”.
For `CC[C@@H]1NC(=O)[C@H](C)N(C)C(=O)[C@H](C(C)C)N(C)C(=O)[C@H](CC(C)C)N(C)C(=O)[C@H](CC(C)C)N(C)C(=O)[C@@H](C)NC(=O)[C@H](C)NC(=O)[C@H](CC(C)C)N(C)C(=O)[C@H](C(C)C)NC(=O)[C@H](C)N(C)C(=O)CN(C)C1=O` [compound 5] (HELM PEPTIDE1{A.[dA].[meL].[meL].[meV].[meA].[Abu].[Sar].[meA].V.[meL]}$PEPTIDE1,PEPTIDE1,1:R1-11:R2$$$V2.0), the “degree of decrease of permeability coefficient relative to 1” value [1] was “less than 50%”.
In the case of `CC[C@@H]1NC(=O)[C@H](C)N(C)C(=O)[C@H](C(C)C)N(C)C(=O)[C@H](CC(C)C)N(C)C(=O)[C@H](C)N(C)C(=O)[C@@H](C)NC(=O)[C@H](C)NC(=O)[C@H](CC(C)C)N(C)C(=O)[C@H](C(C)C)NC(=O)[C@H](CC(C)C)N(C)C(=O)CN(C)C1=O` [compound 8] (HELM PEPTIDE1{A.[dA].[meA].[meL].[meV].[meA].[Abu].[Sar].[meL].V.[meL]}$PEPTIDE1,PEPTIDE1,1:R1-11:R2$$$V2.0), the “degree of decrease of permeability coefficient relative to 1” value [1] is reported as “less than 50%”.
In the case of cyclosporin O [CsO], the “permeability compared with CsA (in words)” value [2] is listed as “lower permeability of CsO than CsA” and the “permeability compared with CsA (in words)” value [3] is listed as “lower permeability of CsO than CsA”.
